Laboratory results: the supplement of paper PMC11061612

Legend:
Experiment in all cases: Bliss excess, mean over the matrix (fraction); higher = more synergy
[1] = tested on: PA-TU-8988T (Pancreatic Carcinoma)
How it was run: (§1)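 Cell lines in DMEM/F12 or RPMI with 10% FBS were plated in 1536-well plates, held 24 hours at 37°C, 5% CO2, then given two-drug dose matrices for 72 hours (DMSO typically 0.2%). Viability was read by CellTiter-Glo 2.0 luminescence and scaled as inhibition from 0 (vehicle wells) to 1 (blank wells). Combination Emax is the second-highest inhibition in the matrix; Bliss excess is observed combination effect minus expected EA + EB − EA·EB, EA and EB being single-agent effects.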

[2] = tested on: LCLC-103H (Non-Small Cell Lung Carcinoma)
How it was run: as §1

IST-MEL1 (Melanoma) = tested on: IST-MEL1 (Melanoma)
How it was run: as §1

SK-N-SH (Neuroblastoma) = tested on: SK-N-SH (Neuroblastoma)
How it was run: as §1

[3] = tested on: MDA-MB-415 (Breast Carcinoma)
How it was run: as §1

[4] = tested on: NMC-G1 (Low Grade Glioma)
How it was run: as §1

[5] = tested on: NAMALWA (Burkitt's Lymphoma)
How it was run: as §1

NCI-H2373 (Mesothelioma) = tested on: NCI-H2373 (Mesothelioma)
How it was run: as §1

NB1 (Neuroblastoma) = tested on: NB1 (Neuroblastoma)
How it was run: as §1

T47D (Breast Carcinoma) = tested on: T47D (Breast Carcinoma)
How it was run: as §1

UACC-257 (Melanoma) = tested on: UACC-257 (Melanoma)
How it was run: as §1

[6] = tested on: MS-1 (Small Cell Lung Carcinoma)
How it was run: as §1

[7] = tested on: DBTRG-05MG (Glioblastoma)
How it was run: as §1

WM35 (Melanoma) = tested on: WM35 (Melanoma)
How it was run: as §1

GAK (Melanoma) = tested on: GAK (Melanoma)
How it was run: as §1

[8] = tested on: MM1S (Plasma Cell Myeloma)
How it was run: as §1

[9] = tested on: NCI-H1341 (Small Cell Lung Carcinoma)
How it was run: as §1

[10] = tested on: MOLP-8 (Plasma Cell Myeloma)
How it was run: as §1

[11] = tested on: HT-1080 (Other Solid Carcinomas)
How it was run: as §1

[12] = tested on: PL4 (Pancreatic Carcinoma)
How it was run: as §1

SMILES | Bliss excess [1] | Bliss excess [2] | Bliss excess (IST-MEL1 (Melanoma)) | Bliss excess (SK-N-SH (Neuroblastoma)) | Bliss excess [3] | Bliss excess [4] | Bliss excess [5] | Bliss excess (NCI-H2373 (Mesothelioma)) | Bliss excess (NB1 (Neuroblastoma)) | Bliss excess (T47D (Breast Carcinoma)) | Bliss excess (UACC-257 (Melanoma)) | Bliss excess [6] | Bliss excess [7] | Bliss excess (WM35 (Melanoma)) | Bliss excess (GAK (Melanoma)) | Bliss excess [8] | Bliss excess [9] | Bliss excess [10] | Bliss excess [11] | Bliss excess [12]
Cc1c2c(nn1C)CSCc1cc(n(C)n1)CSc1cc(c3ccccc3c1)OCCCc1c(C(=O)O)n(C)c3c-2c(Cl)ccc13 [AZD5991] + Cc1cc2ncnn2cc1Nc1ncc2c(n1)n(C1CCOCC1)c(=O)n2C [AZD7648] (first compound max 1 µM, 7x7, partner max 10 µM) | -0.051 | -0.0543 | -0.0048 | -0.0211 | -0.0924 | -0.0606 | -0.0286 | -0.015 | -0.0197 | -0.0159 | -0.0242 | -0.0158 | -0.0436 | -0.0073 | -0.021 | 0.0085 | 0.0192 | 0.0192 | -0.0256 | -0.0395
CN(CCO)CC[C@H](CSc1ccccc1)Nc1ccc(S(=O)(=O)NC(=O)c2ccc(N3CCC([C@@H](O)c4ccccc4-c4ccc(Cl)cc4)CC3)cc2)cc1S(=O)(=O)C(F)(F)F [AZD4320] + C[C@@H]1COCCN1C2=NC(=NC(=C2)C3(CC3)[S@](=N)(=O)C)C4=C5C=CNC5=NC=C4 [AZD6738] (first compound max 1 µM, 7x7, partner max 10 µM) | -0.0006 | -0.0362 | -0.0336 | -0.0586 | -0.0749 | -0.0724 | 0.0006 | -0.0303 | -0.0023 | -0.0566 | -0.0663 | -0.0085 | -0.0221 | -0.0182 | 0.0029 | -0.0008 | -0.0017 | 0.0086 | 0.0171 | -0.066
COc1cccc(OCCCN)c1-c1cc(Nc2cnc(C#N)cn2)n[nH]1 [Prexasertib] + Cc1cc2ncnn2cc1Nc1ncc2c(n1)n(C1CCOCC1)c(=O)n2C [AZD7648] (first compound max 1 µM, 7x7, partner max 10 µM) | 0.0389 | -0.0791 | -0.0046 | -0.0138 | -0.0331 | -0.0374 | 0.0087 | -0.0099 | 0.0251 | -0.0055 | -0.0111 | -0.0228 | -0.0105 | 0.0429 | -0.0028 | -0.0108 | 0.0194 | -0.013 | 0.0234 | 0.0048
CN(C)CCCOc1ccc(-c2ccc3ncc4c(c3c2)n(C2CCOCC2)c(=O)n4C)cn1 [AZD0156] + C[C@@H]1COCCN1C2=NC(=NC(=C2)C3(CC3)[S@](=N)(=O)C)C4=C5C=CNC5=NC=C4 [AZD6738] (first compound max 1 µM, 7x7, partner max 10 µM) | 0.0423 | -0.0352 | -0.0196 | -0.115 | -0.007 | -0.0603 | 0.0342 | -0.0065 | 0.0522 | -0.0223 | -0.0338 | 0.0279 | -0.022 | 0.0618 | 0.0448 | 0.0173 | 0.0309 | 0.0203 | 0.02 | 0.0862
CN(CCO)CC[C@H](CSc1ccccc1)Nc1ccc(S(=O)(=O)NC(=O)c2ccc(N3CCC([C@@H](O)c4ccccc4-c4ccc(Cl)cc4)CC3)cc2)cc1S(=O)(=O)C(F)(F)F [AZD4320] + CCN(CCO)CCCOc1ccc2c(Nc3cc(CC(=O)Nc4cccc(F)c4)[nH]n3)ncnc2c1 [AZD2811] (first compound max 1 µM, 7x7, partner max 1 µM) | 0.0239 | -0.0157 | 0.0445 | -0.143 | 0.0756 | 0.0047 | 0.0873 | -0.0366 | 0.0994 | -0.0174 | -0.0022 | 0.0349 | 0.0363 | -0.0084 | -0.0032 | 0.118 | 0.0422 | 0.0283 | -0.0046 | 0.0251
Cc1c2c(nn1C)CSCc1cc(n(C)n1)CSc1cc(c3ccccc3c1)OCCCc1c(C(=O)O)n(C)c3c-2c(Cl)ccc13 [AZD5991] + C=CCn1c(=O)c2cnc(Nc3ccc(N4CCN(C)CC4)cc3)nc2n1-c1cccc(C(C)(C)O)n1 [AZD1775] (first compound max 1 µM, partner max 1 µM) | -0.0321 | 0.0101 | -0.0318 | -0.0163 | 0.0011 | -0.0012 | 0.0017 | -0.0079 | -0.0156 | -0.0369 | 0.0163 | -0.0462 | 0.005 | 0.027 | -0.0077 | 0.0547 | 0.0185 | -0.0041 | 0.0345 | -0.0928
CCN(CCO)CCCOc1ccc2c(Nc3cc(CC(=O)Nc4cccc(F)c4)[nH]n3)ncnc2c1 [AZD2811] + C=CCn1c(=O)c2cnc(Nc3ccc(N4CCN(C)CC4)cc3)nc2n1-c1cccc(C(C)(C)O)n1 [AZD1775] (first compound max 1 µM, partner max 1 µM) | 0.0311 | 0.0066 | 0.0196 | -0.0544 | -0.0152 | -0.0847 | -0.0101 | -0.0482 | -0.0433 | -0.0236 | -0.032 | -0.0205 | -0.0402 | -0.0098 | -0.0522 | 0.0048 | 0.0747 | 0.0185 | 0.025 | -0.0002
CN(CCO)CC[C@H](CSc1ccccc1)Nc1ccc(S(=O)(=O)NC(=O)c2ccc(N3CCC([C@@H](O)c4ccccc4-c4ccc(Cl)cc4)CC3)cc2)cc1S(=O)(=O)C(F)(F)F [AZD4320] + CN(C)CCCOc1ccc(-c2ccc3ncc4c(c3c2)n(C2CCOCC2)c(=O)n4C)cn1 [AZD0156] (first compound max 1 µM, 7x7, partner max 1 µM) | -0.005 | -0.0704 | -0.0151 | -0.0439 | -0.114 | -0.0362 | 0.0125 | -0.0545 | -0.0202 | -0.0056 | -0.0323 | 0.0275 | -0.0497 | -0.0141 | -0.0381 | 0.0753 | 0.0517 | 0.0233 | -0.0895 | 0.0463
CN(C)CCCOc1ccc(-c2ccc3ncc4c(c3c2)n(C2CCOCC2)c(=O)n4C)cn1 [AZD0156] + CCN(CCO)CCCOc1ccc2c(Nc3cc(CC(=O)Nc4cccc(F)c4)[nH]n3)ncnc2c1 [AZD2811] (first compound max 1 µM, 7x7, partner max 1 µM) | 0.0079 | -0.0395 | -0.0131 | -0.0133 | -0.0087 | -0.0855 | 0.0323 | -0.0048 | -0.0137 | -0.0062 | -0.039 | 0.0331 | -0.0453 | -0.0426 | -0.0025 | 0.0135 | 0.005 | -0.0308 | -0.0159 | 0.0286
CC1(C)CCC(CN2CCN(c3ccc(C(=O)NS(=O)(=O)c4ccc(NCC5CCOCC5)c([N+](=O)[O-])c4)c(Oc4cnc5[nH]ccc5c4)c3)CC2)=C(c2ccc(Cl)cc2)C1 [Venetoclax] + CN(C)CCCOc1ccc(-c2ccc3ncc4c(c3c2)n(C2CCOCC2)c(=O)n4C)cn1 [AZD0156] (first compound max 1 µM, 7x7, partner max 1 µM) | -0.0102 | -0.0404 | -0.0207 | -0.0542 | -0.0869 | -0.0373 | 0.0387 | -0.0564 | -0.0278 | -0.0366 | -0.004 | 0.0128 | -0.008 | -0.0197 | -0.0378 | 0.0344 | 0.007 | 0.0203 | -0.0434 | -0.0397
COc1cc2c(cc1OCCCCCOc1cc3c(cc1OC)C(=O)N1C=C(C)C[C@H]1C=N3)N=C[C@@H]1CC(C)=CN1C2=O [SG3199] + O=C(c1cc(Cc2n[nH]c(=O)c3ccccc23)ccc1F)N1CCN(C(=O)C2CC2)CC1 [Olaparib] (first compound max 0.001 µM, 7x7, partner max 10 µM) | 0.0053 | -0.0506 | -0.0196 | -0.0454 | -0.0333 | -0.0625 | 0.0018 | 0.0054 | -0.0418 | -0.0449 | -0.0419 | 0.0418 | -0.0357 | -0.0129 | -0.0238 | 0.0663 | -0.0059 | 0.002 | -0.02 | 0.0304
Cc1c2c(nn1C)CSCc1cc(n(C)n1)CSc1cc(c3ccccc3c1)OCCCc1c(C(=O)O)n(C)c3c-2c(Cl)ccc13 [AZD5991] + C1CN(CCC1(C(=O)N[C@@H](CCO)C2=CC=C(C=C2)Cl)N)C3=NC=NC4=C3C=CN4 [Capivasertib] (first compound max 1 µM, 7x7, partner max 3 µM) | -0.01 | -0.0025 | 0.0025 | 0.011 | 0.0144 | -0.0172 | 0.0008 | -0.0671 | -0.0186 | -0.0887 | 0.0061 | 0.0265 | -0.0215 | -0.0183 | -0.029 | -0.0098 | 0.0609 | 0.0077 | -0.0594 | 0.0199
COc1cccc(OCCCN)c1-c1cc(Nc2cnc(C#N)cn2)n[nH]1 [Prexasertib] + CCc1c2c(nc3ccc(O)cc13)-c1cc3c(c(=O)n1C2)COC(=O)[C@]3(O)CC [SN-38] (first compound max 1 µM, 7x7, partner max 0.3 µM) | 0.167 | 0.081 | -0.0552 | -0.0778 | 0.106 | -0.105 | -0.0197 | 0.0224 | -0.0529 | -0.0399 | -0.0664 | -0.0051 | -0.0558 | -0.0582 | 0.0087 | -0.0065 | -0.0174 | -0.082 | -0.0274 | -0.0027
Cc1c2c(nn1C)CSCc1cc(n(C)n1)CSc1cc(c3ccccc3c1)OCCCc1c(C(=O)O)n(C)c3c-2c(Cl)ccc13 [AZD5991] + C[C@@H]1COCCN1C2=NC(=NC(=C2)C3(CC3)[S@](=N)(=O)C)C4=C5C=CNC5=NC=C4 [AZD6738] (first compound max 1 µM, 7x7, partner max 10 µM) | 0.0151 | 0.0224 | -0.0344 | -0.0225 | 0.0328 | 0.0188 | -0.0012 | 0.0293 | 0.0343 | 0.0333 | 0.0278 | -0.0205 | 0.0578 | 0.0604 | 0.0034 | 0.102 | 0.0751 | 0.0254 | 0.0041 | 0.0606
